Reference: patent publication US20250114353A1, “Combination Treatment Regimens - SMARCA2 Degrader With Gemcitabine” (priority 2023, published 2025)

Tested on: NCI-H838 tumors
Assay: NCI-H838 tumor bearing mouse model (SMARCA4-deficient lung cancer xenograft), tumor growth inhibition
Format: in vivo
Conditions: NOD/SCID female mice, NCI-H838-#5 s.c. xenograft, versus vehicle
Method: NOD/SCID female mice were inoculated subcutaneously with NCI-H838-#5 cells (5×10^6) into the right flank in PBS 0.1 ml mixed with Matrigel.
As used herein, tumor growth inhibition is calculated as follows: Mean % Inhibition=(mean(C)−mean(T))/mean(C)*100%, wherein C is the tumor volume in the control arm, and T is the tumor volume in the treatment arm.
The NCI-H838-#5 tumor cells are maintained in vitro with RPMI1640 medium supplemented with 10% fetal bovine serum at 37° C. in an atmosphere of 5% CO2 in air. The cells in exponential growth phase are harvested and quantitated by cell counter before tumor inoculation. NOD-SCID female mice are inoculated subcutaneously in the right front flank region with NCI-H838-#5 tumor cells (5×10^6) in 0.1 ml of PBS mixed with Matrigel (1:1) for tumor development. The randomization is performed when the mean tumor size reaches approximately 100-150 mm^3.
For the NCI-H838 CDX model, mice are inoculated subcutaneously with the NCI-H838 tumor cells (5×10^6).

Row | SMILES | tumor growth inhibition (TGI) (single agent Formula (I) 100 mg/kg s.c. Q3D) | tumor growth inhibition (TGI) (single agent gemcitabine 100 mg/kg i.v. BIW)
1 | Cc1ncsc1-c1ccc([C@H](C)NC(=O)[C@@H]2C[C@@H](O)CN2C(=O)[C@@H](c2cc(O[C@@H](C)CN3CC[C@@H](N4CCN5c6cc(-c7ccccc7O)nnc6NC[C@H]5C4)C3)no2)C(C)C)cc1 [Formula (I)] | significantly inhibits the growth of NCI-H838 tumors | –
2 | Nc1ccn([C@@H]2O[C@H](CO)[C@@H](O)C2(F)F)c(=O)n1 [gemcitabine, 4-amino-1-((2R,4R,5R)-3,3-difluoro-4-hydroxy-5-(hydroxymethyl)tetrahydrofuran-2-yl)pyrimidin-2(1H)-one] | – | significant tumor growth inhibition
